For this experiment, the target named is human TREK-1 (Homo sapiens (Human), UniProt O95069). Put plainly: TREK-1 Thallium (Tl+) flux assay. It counts as cell-based. The conditions noted are these: CHO-K1 cells stably expressing human TREK-1.
human TREK-1, sequence (O95069 whole entry): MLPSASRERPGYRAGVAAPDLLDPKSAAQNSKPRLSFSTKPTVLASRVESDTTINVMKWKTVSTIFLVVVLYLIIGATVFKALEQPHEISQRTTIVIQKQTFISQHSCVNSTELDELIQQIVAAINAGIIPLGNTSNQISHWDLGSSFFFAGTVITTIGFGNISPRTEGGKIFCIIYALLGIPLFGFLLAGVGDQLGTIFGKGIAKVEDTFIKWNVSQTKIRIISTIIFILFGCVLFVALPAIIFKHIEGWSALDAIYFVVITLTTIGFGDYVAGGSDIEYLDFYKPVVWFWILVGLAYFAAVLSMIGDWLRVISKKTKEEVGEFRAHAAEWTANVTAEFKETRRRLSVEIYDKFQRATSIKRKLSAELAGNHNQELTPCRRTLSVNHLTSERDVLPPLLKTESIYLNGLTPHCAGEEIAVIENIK
The molecule `Cc1cc(C#Cc2ccccc2)cnc1NC(=O)c1cc(-c2nnco2)ccc1Cl` [Compound 77, 2-chloro-N-[3-methyl-5-(2-phenylethynyl)-2-pyridyl]-5-(1,3,4-oxadiazol-2-yl)benzamide] yielded an IC50 of 470 nM. That is a sub-micromolar value.
Turning to `Cc1cc(C#Cc2ccccc2)cnc1NC(=O)c1cc(C#N)ccc1Cl` [Compound 53, 2-chloro-5-cyano-N-(3-methyl-5-(phenylethynyl)pyridin-2-yl)benzamide], 810 nM corresponded to half-maximal inhibition (IC50). Compared with the last molecule, the IC50 is about 1.7-fold higher.
For `Cc1cc(-c2ccc(-c3ccccc3)s2)cnc1NC(=O)c1cc(NC(=O)OC(C)(C)C)ccc1Cl` [Compound 99, tert-butyl N-[4-chloro-3-[[3-methyl-5-(5-phenyl-2-thienyl)-2-pyridyl]carbamoyl]phenyl]carbamate] the value was 1830 nM; for `Cc1cc(C#Cc2ccccc2)cnc1NC(=O)c1cc(C(=O)N2CC(O)(C(F)(F)F)C2)ccc1Cl` [Compound 79, 2-chloro-5-[3-hydroxy-3-(trifluoromethyl)azetidine-1-carbonyl]-N-[3-methyl-5-(2-phenylethynyl)-2-pyridyl]benzamide], 870 nM.
For `Cc1cc(C#Cc2ccccc2)cnc1NC(=O)c1cc(-c2cnn(CCN3CCOCC3)c2)ccc1Cl` [Compound 62, 2-chloro-N-[3-methyl-5-(2-phenylethynyl)-2-pyridyl]-5-[1-(2-morpholinoethyl)pyrazol-4-yl]benzamide] the value was 170 nM; for `C[C@H]1C[C@@H]1C(=O)Nc1ccc(Cl)c(C(=O)Nc2ncc(C#Cc3cccc(F)c3)cc2F)c1` [Compound 4, 2-chloro-N-[3-fluoro-5-[2-(3-fluorophenyl)ethynyl]-2-pyridyl]-5-[[(1S,2S)-2-methylcyclopropanecarbonyl]amino]benzamide], 130 nM; for `Cc1cc(C#Cc2ccccc2)cnc1NC(=O)c1nc(NC(=O)OC(C)(C)C)ccc1Cl` [Compound 43, tert-butyl N-[5-chloro-6-[[3-methyl-5-(2-phenylethynyl)-2-pyridyl]carbamoyl]-2-pyridyl]carbamate], 550 nM.
As to `Cc1cc(C#Cc2ccccc2)cnc1NC(=O)c1cc(NC(=O)OC(C)(C)C)cc(F)c1Cl` [Compound 35, tert-butyl N-[4-chloro-3-fluoro-5-[[3-methyl-5-(2-phenylethynyl)-2-pyridyl]carbamoyl]phenyl]carbamate], the IC50 is 400 nM.
For `Cc1cc(C#Cc2ccccc2)cnc1NC(=O)c1cc(NC(=O)OC(C)(C)C)ccc1F` [Compound 50, tert-butyl N-[4-fluoro-3-[[3-methyl-5-(2-phenylethynyl)-2-pyridyl]carbamoyl]phenyl]carbamate] the value was 1080 nM.
For `O=C(Nc1ncc(C#Cc2ccccc2)cc1F)c1cc(-c2cnn(C3CCOCC3)c2)ccc1Cl` [Compound 55, 2-chloro-N-[3-fluoro-5-(2-phenylethynyl)-2-pyridyl]-5-(1-tetrahydropyran-4ylpyrazol-4-yl)benzamide] the value was 100 nM; for `O=C(Nc1ncc(C#Cc2ccccc2)cc1F)c1cc(-c2noc(C3CCOC3)n2)ccc1Cl` (centres unmarked) [Compound 54], 80 nM.
Take `Cc1noc(-c2ccc(Cl)c(C(=O)Nc3ncc(C#Cc4ccccc4)cc3C)c2)n1` [Compound 63, 2-chloro-5-(3-methyl-1,2,4-oxadiazol-5-yl)-N-[3-methyl-5-(2-phenylethynyl)-2-pyridyl]benzamide]: 200 nM corresponded to half-maximal inhibition (IC50). Against the preceding molecule, the IC50 is about 2.5-fold higher.
For `Cc1cc(C#Cc2ccccc2)cnc1NC(=O)c1cc(-c2cnn(C)c2)ccc1Cl` [Compound 78, 2-chloro-N-[3-methyl-5-(2-phenylethynyl)-2-pyridyl]-5-(1-methylpyrazol-4-yl)benzamide] the value was 470 nM.
`Cc1cc(C#Cc2ccccc2)cnc1NC(=O)c1cc(OCCN2CCOCC2)ccc1Cl` [Compound 84, 2-chloro-N-[3-methyl-5-(2-phenylethynyl)-2-pyridyl]-5-(2-morpholinoethoxy)benzamide] displayed an IC50 of 420 nM.

The IC50 is the concentration needed to halve the response being measured.

Source of the values: patent publication US20240190824A1, “INHIBITORS OF TREK (TWIK RELATED K+ CHANNELS) CHANNEL FUNCTION” (ONO PHARMACEUTICAL CO., LTD., priority 2019, published 2024).
